Measured values reported in patent publication US9586931B2 (Merck Sharp & Dohme Corp., priority 2012, dated 2017).
pIC50: −log10 of the molar value.

biological target: T1, recombinant human GST-Syk (Homo sapiens, UniProt P43405); assay: Homogeneous Time-Resolved Fluorescence (HTRF) assay for the recombinant human Syk enzyme; format: biochemical; conditions: recombinant human GST-Syk 5 pM, ATP 25 μM, 10-dose titration 10 μM to 0.508 nM; read-out: rhSYK Activity IC50
T1 construct: purchased Carna Biosciences 08-176
How it was run: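 GST-hSyk fusion protein phosphorylated a peptide for 45 min at room temperature. The reaction was quenched with 2 nM Eu-anti-phosphotyrosine antibody and 70 nM SA-APC in 15 mM Tris pH 7.5, 40 mM EDTA, 0.01% Tween 20. The HTRF signal was read after 30 min.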

pIC50 | SMILES
7.49 | Cc1cc(Nc2cc(C(F)(F)F)ccn2)nc(-c2cn(C3CNCC3O)nn2)c1 (racemic) [Example 19.1, (+/−)-(3S,4R)-4-(4-(4-Methyl-6-((4-(trifluoromethyl)pyridin-2-yl)amino)pyridin-2-yl)-1H-1,2,3-triazol-1-yl)pyrrolidin-3-ol]
7.83 | Cc1cc(Nc2cc(C(F)(F)F)ccn2)nc(-c2cn(C[C@H](O)CC(N)=O)nn2)c1 [Example 12.1]
8.48 | Cc1cc(Nc2cc(C(F)(F)F)ccn2)nc(-c2cn(Cc3ccc(C(=O)O)cc3)nn2)c1 [Example 5.42, 4-{[4-(4-methyl-6-{[4-(trifluoromethyl)pyridin-2-yl]amino}pyridin-2-yl)-1H-1,2,3-triazol-1-yl]methyl}benzoic acid]
8.09 | Cc1cc(Nc2cc(C(F)F)ccn2)nc(-c2cn(CC(C)(O)C(C)(C)O)nn2)c1 (stereo not drawn) [Example 21.36, 1-[4-(6-{[4-(difluoromethyl)pyridin-2-yl]amino}-4-methylpyridin-2-yl)-1H-1,2,3-triazol-1-yl]-2,3-dimethylbutane-2,3-diol]
7.48 | Cc1cc(Nc2nccc(C(F)(F)F)n2)cc(-c2cn(C3CCC(C(=O)O)CC3)nn2)c1 (stereo not drawn) [Example 3.16, 4-[4-(3-methyl-5-{[4-(trifluoromethyl)pyrimidin-2-yl]amino}phenyl)-1H-1,2,3-triazol-1-yl]cyclohexanecarboxylic acid]
7.10 | Cc1cc(Nc2nccc(C(F)(F)F)n2)cc(-c2cn(CCOCCO)nn2)c1 [Example 5.49, 2-{2-[4-(3-methyl-5-{[4-(trifluoromethyl)pyrimidin-2-yl]amino}phenyl)-1H-1,2,3-triazol-1-yl]ethoxy}ethanol]
8.48 | Cc1cc(Nc2nccc(C(F)(F)F)n2)cc(-c2cn(Cc3ccc(C(=O)O)cc3)nn2)c1 [Example 5.21, 4-{[4-(3-methyl-5-{[4-(trifluoromethyl)pyrimidin-2-yl]amino}phenyl)-1H-1,2,3-triazol-1-yl]methyl}benzoic acid]
7.83 | Cc1cc(Nc2nccc(C(F)(F)F)n2)cc(-c2cn(CCO)nn2)c1 [Example 5.1, 2-(4-(3-Methyl-5-((4-(trifluoromethyl)pyrimidin-2-yl)amino)phenyl)-1H-1,2,3-triazol-1-yl)ethanol]
8.48 | Cc1cc(Nc2nccc(C(F)F)n2)cc(-c2cn(C(C)C3CNC(=O)O3)nn2)c1 (single isomer, unassigned) [Example 7.2, 5-(1-(4-(3-((4-(Difluoromethyl)pyrimidin-2-yl)amino)-5-methylphenyl)-1H-1,2,3-triazol-1-yl)ethyl)oxazolidin-2-one]
7.02 | Cc1cc(Nc2nccc(C(F)(F)F)n2)cc(-n2cc(C3(O)CCC4(CC3)OCCO4)nn2)c1 [Example 15, 8-[1-(3-Methyl-5-{[4-(trifluoromethyl)pyrimidin-2-yl]amino}phenyl)-1H-1,2,3-triazol-4-yl]-1,4-dioxaspiro[4.5]decan-8-ol]
8.59 | Cc1cc(Nc2cc(C(F)(F)F)ccn2)nc(-c2cn(C3CCCCC(O)C3O)nn2)c1 (single isomer, unassigned) [Example 10.5, 3-[4-(4-methyl-6-{[4-(trifluoromethyl)pyridin-2-yl]amino}pyridin-2-yl)-1H-1,2,3-triazol-1-yl]cycloheptane-1,2-diol]
7.88 | Cc1cc(Nc2cc(C(F)(F)F)ccn2)nc(-c2cn(C(C)c3ccc(C(N)=O)cc3)nn2)c1 (stereo not drawn) [Example 1.16, 4-{1-[4-(4-methyl-6-{[4-(trifluoromethyl)pyridin-2-yl]amino}pyridin-2-yl)-1H-1,2,3-triazol-1-yl]ethyl}benzamide]
7.32 | Cc1cc(Nc2nccc(C(F)(F)F)n2)cc(-c2cn(CC3(O)CCOCC3)nn2)c1 [Example 4.14, 4-{[4-(3-methyl-5-{[4-(trifluoromethyl)pyrimidin-2-yl]amino}phenyl)-1H-1,2,3-triazol-1-yl]methyl}tetrahydro-2H-pyran-4-ol]
7.69 | Cc1cc(Nc2cc(C(F)(F)F)ccn2)nc(-c2cn(C3CCC(C(N)=O)c4ccccc43)nn2)c1 (stereo not drawn) [Example 1.11, 4-[4-(4-methyl-6-{[4-(trifluoromethyl)pyridin-2-yl]amino}pyridin-2-yl)-1H-1,2,3-triazol-1-yl]-1,2,3,4-tetrahydronaphthalene-1-carboxamide]
7.12 | CCOC(=O)C(CC)n1cc(-c2cc(C)cc(Nc3cc(C(F)(F)F)ccn3)n2)nn1 (racemic) [Example 5.28, ethyl 2-[4-(4-methyl-6-{[4-(trifluoromethyl)pyridin-2-yl]amino}pyridin-2-yl)-1H-1,2,3-triazol-1-yl]butanoate]
6.35 | COC(=O)[C@@H]1CCCN1C(=O)[C@@H](C)n1cc(-c2cc(C)cc(Nc3cc(C(F)(F)F)ccn3)n2)nn1 [Example 1.55, methyl 1-{(2R)-2-[4-(4-methyl-6-{[4-(trifluoromethyl)pyridin-2-yl]amino}pyridin-2-yl)-1H-1,2,3-triazol-1-yl]propanoyl}prolinate]
7.83 | Cc1cc(Nc2cc(C(F)(F)F)ccn2)nc(-c2cn(CC(O)CN3CCOC3=O)nn2)c1 (stereo not drawn) [Example 4.33, 3-{2-hydroxy-3-[4-(4-methyl-6-{[4-(trifluoromethyl)pyridin-2-yl]amino}pyridin-2-yl)-1H-1,2,3-triazol-1-yl]propyl}-1,3-oxazolidin-2-one]
6.91 | Cc1cc(Nc2cc(C(F)(F)F)ccn2)nc(-c2cn([C@H](C)C(=O)N3CCC[C@H]3C(N)=O)nn2)c1 [Example 1.19, 1-{(2R)-2-[4-(4-methyl-6-{[4-(trifluoromethyl)pyridin-2-yl]amino}pyridin-2-yl)-1H-1,2,3-triazol-1-yl]propanoyl}prolinamide]
8.05 | Cc1cc(Nc2cc(C(F)(F)F)ccn2)nc(-c2cn([C@@H](C)C(=O)NCC(=O)O)nn2)c1 [Example 3.15, N-{(2S)-2-[4-(4-methyl-6-{[4-(trifluoromethyl)pyridin-2-yl]amino}pyridin-2-yl)-1H-1,2,3-triazol-1-yl]propanoyl}glycine]
8.31 | Cc1cc(Nc2cc(C(F)(F)F)ccn2)nc(-c2cn(CC(C)(O)C(N)=O)nn2)c1 (stereo not drawn) [Example 1.12, 2-hydroxy-2-methyl-3-[4-(4-methyl-6-{[4-(trifluoromethyl)pyridin-2-yl]amino}pyridin-2-yl)-1H-1,2,3-triazol-1-yl]propanamide]
8.14 | Cc1cc(Nc2nccc(C(F)F)n2)cc(-c2cn(C3CCCC(O)C3O)nn2)c1 (single isomer, unassigned) [Example 25.2, 3-(4-(3-((4-(difluoromethyl)pyrimidin-2-yl)amino)-5-methylphenyl)-1H-1,2,3-triazol-1-yl)cyclohexane-1,2-diol]
10.00 | Cc1cc(Nc2cc(C(F)(F)F)ccn2)nc(-c2cn(C(CO)c3ccc(C(=O)O)cc3)nn2)c1 (stereo not drawn) [Example 3.17, 4-{2-hydroxy-1-[4-(4-methyl-6-{[4-(trifluoromethyl)pyridin-2-yl]amino}pyridin-2-yl)-1H-1,2,3-triazol-1-yl]ethyl}benzoic acid]
6.50 | COC(=O)C1CCC(n2cc(-c3cc(C)cc(Nc4cc(C(F)(F)F)ccn4)n3)nn2)CC1(C)C (stereo not drawn) [Example 9.3, methyl 2,2-dimethyl-4-[4-(4-methyl-6-{[4-(trifluoromethyl)pyridin-2-yl]amino}pyridin-2-yl)-1H-1,2,3-triazol-1-yl]cyclohexane-carboxylate]
8.08 | Cc1cc(Nc2cc(C(C)C)ccn2)nc(-c2cn(C(C)c3ccc(C(=O)O)cc3)nn2)c1 (stereo not drawn) [Example 2.13, 4-{1-[4-(4-methyl-6-{[4-(1-methylethyl)pyridin-2-yl]amino}pyridin-2-yl)-1H-1,2,3-triazol-1-yl]ethyl}benzoic acid]
8.21 | Cc1cc(Nc2nccc(C)n2)cc(-c2cn(C[C@](C)(O)CO)nn2)c1 (single isomer, unassigned) [Example 21.1, 2-Methyl-3-(4-(3-methyl-5-((4-methylpyrimidin-2-yl)amino)phenyl)-1H-1,2,3-triazol-1-yl)propane-1,2-diol]
7.16 | CC(=O)N1CCN(C(=O)Cn2cc(-c3cc(C)cc(Nc4nccc(C(F)(F)F)n4)c3)nn2)CC1 [Example 5.59, N-(3-{1-[2-(4-acetylpiperazin-1-yl)-2-oxoethyl]-1H-1,2,3-triazol-4-yl}-5-methylphenyl)-4-(trifluoromethyl)pyrimidin-2-amine]
7.37 | Cc1cc(Nc2cc(C(F)(F)F)ccn2)nc(-c2cn(C(C)C(=O)NC3CCS(=O)(=O)C3)nn2)c1 (racemic) [Example 1.2, N-(1,1-Dioxidotetrahydrothiophen-3-yl)-2-[4-(4-methyl-6-{[4-(trifluoromethyl)pyridin-2-yl]amino}pyridin-2-yl)-1H-1,2,3-triazol-1-yl]propanamide (racemic)]
6.32 | Cc1cc(Nc2cc(C(F)(F)F)ccn2)nc(-c2cn(CCCO)nn2)c1 [Example 5.94, 3-[4-(4-methyl-6-{[4-(trifluoromethyl)pyridin-2-yl]amino}pyridin-2-yl)-1H-1,2,3-triazol-1-yl]propan-1-ol]

SMILES | pIC50
Cc1cc(Nc2nccc(C(F)(F)F)n2)cc(-c2cn(CC3(O)CCC(C(=O)O)C(C)(C)C3)nn2)c1 (single isomer, unassigned) [Example 3.3, (R or S) 4-hydroxy-2,2-dimethyl-4-{[4-(3-methyl-5-{4-(trifluoromethyl)pyrimidin-2-yl]amino}phenyl)-1H-1,2,3-triazol-1-yl]methyl}cyclohexanecarboxylic acid] | 7.27
Cc1cc(Nc2nccc(C(F)(F)F)n2)cc(-c2cn(CC3(O)CCC(C(=O)O)C(C)(C)C3)nn2)c1 (single isomer, unassigned) [Example 3.2, (R or S) 4-hydroxy-2,2-dimethyl-4-{[4-(3-methyl-5-{[4-(trifluoromethyl)pyrimidin-2-yl]amino}phenyl)-1H-1,2,3-triazol-1-yl]methyl}cyclohexanecarboxylic acid] | 7.33
